Key:
[1] = molecular target: soluble human BACE1 catalytic domain (Homo sapiens (Human), UniProt P56817); assay: BACE1 HTRF FRET Assay; type: biochemical; details: Ki calculated from IC50 using the Cheng-Prusoff equation; QSY7-APPswe-Eu substrate, pH 5.0; read-out: BACE-1 Ki
Excerpt: Na^+-Acetate pH 5.0; 1% Brij-35; Glycerol; Dimethyl Sulfoxide (DMSO); Recombinant human soluble BACE1 catalytic domain (>95% pure); APP Swedish mutant peptide substrate (QSY7-APP^swe-Eu): QSY7-EISEVNLDAEFC-Europium-amide.
A homogeneous time-resolved FRET assay can be used to determine IC50 values for inhibitors of the soluble human BACE1 catalytic domain. This assay monitors the increase of 620 nm fluorescence that resulted from BACE1 cleavage of an APPswedish APP^swe mutant peptide FRET substrate (QSY7-EISEVNLDAEFC-Europium-amide). This substrate contains an N-terminal QSY7 moiety that serves as a quencher of the C-terminal Europium fluorophore (620 nm Em). In the absence of enzyme activity, 620 nm fluorescence is low in the assay and increased linearly over 3 hours in the presence of uninhibited BACE1 enzyme. Inhibition of BACE1 cleavage of the QSY7-APP^swe-Eu substrate by inhibitors is manifested as a suppression of 620 nm fluorescence.
Varying concentrations of inhibitors at 3× the final desired concentration in a volume of 10 ul are preincubated with purified human BACE1 catalytic domain (3 nM in 10 μl) for 30 minutes at 30° C. in reaction buffer containing 20 mM Na-Acetate pH 5.0, 10% glycerol, 0.1% Brij-35 and 7.5% DSMO. Reactions are initiated by addition of 10 μl of 600 nM QSY7-APP^swe-Eu substrate (200 nM final) to give a final reaction volume of 30 μl in a 384 well Nunc HTRF plate. The reactions are incubated at 30° C. for 1.5 hours. The 620 nm fluorescence is then read on a Rubystar HTRF plate reader (BMG Labtechnologies) using a 50 millisecond delay followed by a 400 millisecond acquisition time window. Inhibitor IC50 values are derived from non-linear regression analysis of concentration response curves. Ki values are then calculated from IC50 values using the Cheng-Prusoff equation using a previously determined […] of 8 μM for the QSY7-APP^swe-Eu substrate at BACE1.

[2] = molecular target: purified human autoBACE-2 (Homo sapiens (Human), UniProt Q9Y5Z0); assay: BACE-2 Assay (BACE-HTRF assay); type: biochemical; details: Ki calculated from IC50 using the Cheng-Prusoff equation; QSY7-EISEVNLDAEFC-Eu-amide substrate, pH 5.0
Sequence of purified human autoBACE-2 (Q9Y5Z0 63-473 limits assumed): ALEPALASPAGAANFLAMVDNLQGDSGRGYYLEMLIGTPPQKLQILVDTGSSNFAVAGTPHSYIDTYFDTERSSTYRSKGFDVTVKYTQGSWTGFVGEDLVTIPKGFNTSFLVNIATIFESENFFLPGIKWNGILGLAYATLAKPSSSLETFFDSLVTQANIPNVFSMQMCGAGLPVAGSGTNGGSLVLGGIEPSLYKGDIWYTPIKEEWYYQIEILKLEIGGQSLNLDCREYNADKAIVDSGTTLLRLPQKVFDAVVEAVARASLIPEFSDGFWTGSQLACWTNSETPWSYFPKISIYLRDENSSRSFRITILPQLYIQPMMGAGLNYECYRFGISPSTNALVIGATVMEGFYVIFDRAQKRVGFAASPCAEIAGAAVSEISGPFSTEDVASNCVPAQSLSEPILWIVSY
Protocol: Inhibitor IC50s at purified human autoBACE-2 are determined in a time-resolved endpoint proteolysis assay that measures hydrolysis of the QSY7-[…]-Eu-amide FRET peptide substrate (BACE-HTRF assay). […] DMSO is present at 5% final concentration in the assay. Following laser excitation of sample wells at 320 nm, the fluorescence signal at 620 nm is collected for 400 ms following a 50 μs delay on a RUBYstar HTRF plate reader (BMG Labtechnologies). Raw RFU data is normalized to maximum (1.0 nM BACE/DMSO) and minimum (no enzyme/DMSO) RFU values. […] The Ki values are calculated from the IC50 using the Cheng-Prusoff equation.

Sequence of soluble human BACE1 catalytic domain (P56817 75-416): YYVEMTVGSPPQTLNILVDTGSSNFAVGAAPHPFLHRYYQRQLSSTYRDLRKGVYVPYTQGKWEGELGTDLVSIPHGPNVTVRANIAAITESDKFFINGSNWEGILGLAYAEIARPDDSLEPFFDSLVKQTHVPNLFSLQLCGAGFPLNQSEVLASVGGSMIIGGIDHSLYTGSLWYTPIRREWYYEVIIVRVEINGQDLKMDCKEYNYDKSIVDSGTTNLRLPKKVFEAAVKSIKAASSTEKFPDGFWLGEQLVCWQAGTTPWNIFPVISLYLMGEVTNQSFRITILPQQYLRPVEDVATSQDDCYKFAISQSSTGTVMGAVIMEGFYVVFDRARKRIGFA

| SMILES | Ki [1] | Ki [2] |
| --- | --- | --- |
| CN1C(=N)N[C@]2(C)c3cc(NC(=O)c4ccc(Cl)cn4)ccc3OCC[C@H]2S1(=O)=O [Example 1, 5-chloro-N-((4aR,11bR)-2-imino-3,11b-dimethyl-4,4-dioxido-2,3,4a,5,6,11b-hexahydro-1H-benzo[2,3]oxepino[4,5-e][1,2,4]thiadiazin-10-yl)picolinamide] | 72 nM | 65 nM |
| CN1C(=N)N[C@]2(C)c3cc(NC(=O)c4ccccn4)ccc3OCC[C@H]2S1(=O)=O [Example 2, N-((4aR,11bR)-2-imino-3,11b-dimethyl-4,4-dioxido-2,3,4a,5,6,11b-hexahydro-1H-benzo[2,3]oxepino[4,5-e][1,2,4]thiadiazin-10-yl)picolinamide] | 508 nM | 279 nM |
| Cc1nc(C(=O)Nc2ccc3c(c2)[C@@]2(C)NC(=N)N(C)S(=O)(=O)[C@@H]2CCO3)c(C)o1 [Example 3, N-((4aR,11bR)-2-imino-3,11b-dimethyl-4,4-dioxido-2,3,4a,5,6,11b-hexahydro-1H-benzo[2,3]oxepino[4,5-e][1,2,4]thiadiazin-10-yl)-2,5-dimethyloxazole-4-carboxamide] | 265 nM | 384 nM |
| COCC(=O)Nc1ccc2c(c1)[C@@]1(C)NC(=N)N(C)S(=O)(=O)[C@@H]1CCO2 [Example 4, N-((4aR,11bR)-2-imino-3,11b-dimethyl-4,4-dioxido-2,3,4a,5,6,11b-hexahydro-1H-benzo[2,3]oxepino[4,5-e][1,2,4]thiadiazin-10-yl)-2-methoxyacetamide] | 1360 nM | 890 nM |
| CN1C(=N)N[C@]2(C)c3cc(NC(=O)c4ccc(C#N)cn4)ccc3OCC[C@H]2S1(=O)=O [Example 5, 5-cyano-N-((4aR,11bR)-2-imino-3,11b-dimethyl-4,4-dioxido-2,3,4a,5,6,11b-hexahydro-1H-benzo[2,3]oxepino[4,5-e][1,2,4]thiadiazin-10-yl)picolinamide] | 47 nM | 303 nM |
| C#CCOc1ccc(C(=O)Nc2ccc3c(c2)[C@@]2(C)NC(=N)N(C)S(=O)(=O)[C@@H]2CCO3)nc1 [Example 6, N-((4aR,11bR)-2-imino-3,11b-dimethyl-4,4-dioxido-2,3,4a,5,6,11b-hexahydro-1H-benzo[2,3]oxepino[4,5-e][1,2,4]thiadiazin-10-yl)-5-(prop-2-yn-1-yloxy)picolinamide] | 25 nM | 995 nM |
| CN1C(=N)N[C@]2(C)c3cc(NC(=O)c4ccc(F)cn4)ccc3OCC[C@H]2S1(=O)=O [Example 7, 5-fluoro-N-((4aR,11bR)-2-imino-3,11b-dimethyl-4,4-dioxido-2,3,4a,5,6,11b-hexahydro-1H-benzo[2,3]oxepino[4,5-e][1,2,4]thiadiazin-10-yl)picolinamide] | 108 nM | 159 nM |
| Cc1cc(F)cnc1C(=O)Nc1ccc2c(c1)[C@@]1(C)NC(=N)N(C)S(=O)(=O)[C@@H]1CCO2 [Example 8, 5-fluoro-N-((4aR,11bR)-2-imino-3,11b-dimethyl-4,4-dioxido-2,3,4a,5,6,11b-hexahydro-1H-benzo[2,3]oxepino[4,5-e][1,2,4]thiadiazin-10-yl)-3-methylpicolinamide] | 133 nM | 86 nM |
| COc1cnc(C(=O)Nc2ccc3c(c2)[C@@]2(C)NC(=N)N(C)S(=O)(=O)[C@@H]2CCO3)cn1 [Example 9, N-((4aR,11bR)-2-imino-3,11b-dimethyl-4,4-dioxido-2,3,4a,5,6,11b-hexahydro-1H-benzo[2,3]oxepino[4,5-e][1,2,4]thiadiazin-10-yl)-5-methoxypyrazine-2-carboxamide] | 591 nM | 5610 nM |
| CN1C(=N)N[C@]2(C)c3cc(NC(=O)c4ccccn4)ccc3OCC[C@@H]2S1(=O)=O [Example 10, N-((4aS,11bR)-2-imino-3,11b-dimethyl-4,4-dioxido-2,3,4a,5,6,11b-hexahydro-1H-benzo[2,3]oxepino[4,5-e][1,2,4]thiadiazin-10-yl)picolinamide] | 35 nM | 15 nM |
| CN1C(=N)N[C@]2(C)c3cc(NC(=O)c4ncc(Cl)cc4Cl)ccc3OCC[C@@H]2S1(=O)=O [Example 11] | 2 nM | 2 nM |
| CN1C(=N)N[C@]2(C)c3cc(NC(=O)c4ccc(OC(F)F)cn4)ccc3OCC[C@@H]2S1(=O)=O [Example 12, 5-(difluoromethoxy)-N-((4aS,11bR)-2-imino-3,11b-dimethyl-4,4-dioxido-2,3,4a,5,6,11b-hexahydro-1H-benzo[2,3]oxepino[4,5-e][1,2,4]thiadiazin-10-yl)picolinamide] | 5 nM | 58 nM |
| CN1C(=N)N[C@]2(C)c3cc(NC(=O)c4ncc(Cl)cc4F)ccc3OCC[C@@H]2S1(=O)=O [Example 13, 5-chloro-3-fluoro-N-((4aS,11bR)-2-imino-3,11b-dimethyl-4,4-dioxido-2,3,4a,5,6,11b-hexahydro-1H-benzo[2,3]oxepino[4,5-e][1,2,4]thiadiazin-10-yl)picolinamide] | 4 nM | 4 nM |
| CN1C(=N)N[C@]2(C)c3cc(NC(=O)c4ccc(F)cn4)ccc3OCC[C@@H]2S1(=O)=O [Example 14, 5-fluoro-N-((4aS,11bR)-2-imino-3,11b-dimethyl-4,4-dioxido-2,3,4a,5,6,11b-hexahydro-1H-benzo[2,3]oxepino[4,5-e][1,2,4]thiadiazin-10-yl)picolinamide] | 10 nM | 6 nM |
| CN1C(=N)N[C@]2(C)c3cc(NC(=O)c4ncc(F)cc4F)ccc3OCC[C@@H]2S1(=O)=O [Example 15] | 10 nM | 6 nM |
| CN1C(=N)N[C@]2(C)c3cc(NC(=O)c4ccc(C#N)cn4)ccc3OCC[C@@H]2S1(=O)=O [Example 16, 5-cyano-N-((4aS,11bR)-2-imino-3,11b-dimethyl-4,4-dioxido-2,3,4a,5,6,11b-hexahydro-1H-benzo[2,3]oxepino[4,5-e][1,2,4]thiadiazin-10-yl)picolinamide] | 1 nM | 14 nM |
| Cc1ccc(C(=O)Nc2ccc3c(c2)[C@@]2(C)NC(=N)N(C)S(=O)(=O)[C@H]2CCO3)nc1 [Example 17, N-((4aS,11bR)-2-imino-3,11b-dimethyl-4,4-dioxido-2,3,4a,5,6,11b-hexahydro-1H-benzo[2,3]oxepino[4,5-e][1,2,4]thiadiazin-10-yl)-5-methylpicolinamide] | 18 nM | 16 nM |
| CN1C(=N)N[C@]2(C)c3cc(NC(=O)c4ccc(C(F)(F)F)cn4)ccc3OCC[C@@H]2S1(=O)=O [Example 18, N-((4aS,11bR)-2-imino-3,11b-dimethyl-4,4-thoxido-2,3,4a,5,6,11b-hexahydro-1H-benzo[2,3]oxepino[4,5-e][1,2,4]thiadiazin-10-yl)-5-(trifluoromethyl)picolinamide] | 11 nM | 79 nM |
| CN1C(=N)N[C@]2(C)c3cc(NC(=O)c4ccc(OC(F)(F)F)cn4)ccc3OCC[C@@H]2S1(=O)=O [Example 19, N-((4aS,11bR)-2-imino-3,11b-dimethyl-4,4-dioxido-2,3,4a,5,6,11b-hexahydro-1H-benzo[2,3]oxepino[4,5-e][1,2,4]thiadiazin-10-yl)-5-(trifluoromethoxy)picolinamide] | 8 nM | 104 nM |
| CN1C(=N)N[C@]2(C)c3cc(NC(=O)c4ncc(C(F)(F)F)cc4Cl)ccc3OCC[C@@H]2S1(=O)=O [Example 20, 3-chloro-N-((4aS,11bR)-2-imino-3,11b-dimethyl-4,4-dioxido-2,3,4a,5,6,11b-hexahydro-1H-benzo[2,3]oxepino[4,5-e][1,2,4]thiadiazin-10-yl)-5-(trifluoromethyl)picolinamide] | 5 nM | 36 nM |
| Cc1ccc(C(=O)Nc2ccc3c(c2)[C@@]2(C)NC(=N)N(C)S(=O)(=O)[C@H]2CCC3)nc1 [Example 21, N-((4aS,11bR)-2-imino-3,11b-dimethyl-4,4-dioxido-1,2,3,4a,5,6,7,11b-octahydrobenzo[6,7]cyclohepta[1,2-e][1,2,4]thiadiazin-10-yl)-5-methylpicolinamide] | 45 nM | 34 nM |
